Read-outs that look alike come from different tables or passages of the source.
How the values were obtained:
ALDH2 = target: T1, ALDH2 (Homo sapiens, UniProt P05091); test: Fluorescence-based ALDH2 enzymatic inhibition assay (NADH fluorescence); assay type: biochemical; conditions: for IC50: ALDH2 50 nM, formaldehyde 300 μM, NAD+ 1.2 mM, pH 7.4, 25° C.; for fold more potent than hit CB-01 (ALDH2 IC50): relative to parent screening hit CB-01
T1 construct: purchased Abcam 87415
T1 sequence (P05091 18-517): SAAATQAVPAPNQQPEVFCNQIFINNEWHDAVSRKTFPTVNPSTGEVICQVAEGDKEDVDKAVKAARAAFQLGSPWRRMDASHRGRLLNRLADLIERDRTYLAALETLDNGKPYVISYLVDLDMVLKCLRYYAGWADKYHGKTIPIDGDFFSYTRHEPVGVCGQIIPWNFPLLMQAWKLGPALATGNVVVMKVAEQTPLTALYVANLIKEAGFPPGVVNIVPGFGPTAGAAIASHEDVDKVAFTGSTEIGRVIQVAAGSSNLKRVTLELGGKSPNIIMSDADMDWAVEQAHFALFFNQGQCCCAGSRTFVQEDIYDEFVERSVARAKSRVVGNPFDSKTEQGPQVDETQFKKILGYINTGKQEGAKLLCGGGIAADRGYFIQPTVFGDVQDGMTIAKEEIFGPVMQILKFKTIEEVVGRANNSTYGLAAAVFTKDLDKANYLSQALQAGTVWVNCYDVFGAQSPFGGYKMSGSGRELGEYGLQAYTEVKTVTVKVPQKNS
Method: Fluorescence-based ALDH2 assay was used to test the potencies of new compounds.
IC50 values of synthesized compounds is tested by an ALDH2 enzymatic assay obtained by modifying a published protocol, for example by Yang et al. This assay measures an inhibitor-caused fluorescence decrease of the NADH generated from the ALDH2 catalytic reaction. Inhibitor binding causes a decrease in the production of NADH that affects the ability of the enzyme to turnover its substrate aldehyde and decreased the production of carboxylic acid. The assay components include: ALDH2 (50 nM) (Abcam #87415), substrate formaldehyde (300 μM), NAD^+ (1.2 mM), and testing compound in phosphate buffer (50 mM, pH 7.4) with 0.01% Tween 20 at 25° C. The assay is performed in black 384-well plates (40 L total volume; Costar). […] The negative control contains the enzyme, substrate solution in phosphate buffer without the addition of the substrate formaldehyde. Measurements are performed 10 min after adding the testing compound by excitation of NAD^+ at 340 nm, which leads to fluorescence emission at 450 nm. The IC50 values of testing compounds is determined from experiments performed in a concentration-dependent manner of testing compounds by fitting the data to a sigmoidal dose-response equation in GraphPad Prism. All experiments are performed in triplicate.
An HTS ALDH2 enzymatic assay is established and can be used to measure the inhibitory potency of compounds. […] The assay was used for temperature, pH value, and concentration of ALDH2 in the 384-well format; several independent test runs were performed to assess assay parameters.
To determine the performance of the established ALDH2 activity assay under HTS conditions, a pilot screen of 980 compounds was performed. Compounds were tested in triplicate at concentrations ranging from 10 nM to 50 μM (0.1% DMSO). Raw assay data were analyzed using DataWarrior software. The IC50 value of each compound was calculated. “High Control” represents wells from the same plate containing ALDH2 (50 nM), formaldehyde (300 μM), and NAD^+ (1.2 mM) in phosphate buffer (50 mM, pH 7.4) with 0.01% Tween 20 at 25° C. and DMSO (0.1%) while “Low controls” correspond to the wells from the same plate containing ALDH2 (50 nM) treated with and NAD^+ (1.2 mM) in phosphate buffer (50 mM, pH 7.4) with 0.01% Tween 20 at 25° C. and DMSO (0.1%). […] Two values were subsequently calculated: 1) the average IC50 values of all the compounds tested in the screen, and 2) three times the standard deviation. The sum of these two values was used as the cutoff parameter.

OATP1B1 = target: T2, OATP1B1 (Homo sapiens, UniProt Q9Y6L6); test: OATP1B1-mediated uptake, OATP1B1-transfected vs wild-type HEK293 cells; assay type: in vitro ADME
T2 construct: expressed in transfected cells; host or cells: HEK293
T2 sequence (Q9Y6L6 1-691): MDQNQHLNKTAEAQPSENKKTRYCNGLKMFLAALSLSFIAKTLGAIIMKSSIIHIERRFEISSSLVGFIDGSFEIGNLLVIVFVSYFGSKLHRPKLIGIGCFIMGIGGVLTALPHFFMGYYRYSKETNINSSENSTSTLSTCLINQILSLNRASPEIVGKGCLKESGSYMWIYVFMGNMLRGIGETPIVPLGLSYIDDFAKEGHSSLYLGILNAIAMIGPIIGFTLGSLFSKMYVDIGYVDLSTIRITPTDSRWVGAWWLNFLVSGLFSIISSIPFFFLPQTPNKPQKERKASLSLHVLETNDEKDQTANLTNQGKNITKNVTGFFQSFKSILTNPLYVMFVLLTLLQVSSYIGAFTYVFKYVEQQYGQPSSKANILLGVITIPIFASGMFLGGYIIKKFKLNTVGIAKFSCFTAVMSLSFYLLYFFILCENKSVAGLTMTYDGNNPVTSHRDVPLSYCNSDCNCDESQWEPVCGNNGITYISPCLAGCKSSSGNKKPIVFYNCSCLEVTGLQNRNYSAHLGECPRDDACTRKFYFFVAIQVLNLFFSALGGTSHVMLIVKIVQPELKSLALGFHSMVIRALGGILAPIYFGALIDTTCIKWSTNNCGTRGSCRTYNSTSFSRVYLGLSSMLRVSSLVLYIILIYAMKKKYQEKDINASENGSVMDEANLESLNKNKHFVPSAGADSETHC
Method: The uptake of inhibitor YA7068 by the liver-specific transporter OATP1B1 has been evaluated using a protocol similar to the one in a recent study on OCT transporters by Obianom et al. After incubating OATP1B1-transfected HEK293 cells with the compound, the intracellular concentrations of YA7068 was >2.5-fold higher than that after incubating the wild-type HEK293 cells with the compound (FIG. 3D). In sum, compound YA7068 is developed as a novel liver-targeting potent inhibitor of ALDH2.
The OATP1-mediated uptake of synthesized compounds is assessed by an LC-MS-based method employing the OATP1B1- or OATP1B3-expressing HEK293 cells. Briefly, cells are washed twice with uptake buffer to remove floating cells. Compounds diluted in the uptake buffer are replaced in the wells and incubated for 10 min. For screening of compounds at a single concentration and one-time point, the cells are incubated with 100 μM of testing compounds. In each experiment, pitavastatin is used as a positive control. The incubation is stopped by removing the solution and adding […] of ice-cold uptake buffer. The cells are washed twice with the buffer. After washing, 200 μL of lysing solution (1:1 MeOH/H2O) containing internal standard is added. […] Aliquots of the supernatant are transferred to new tubes and drug concentration is quantified by LC-MS/MS. […]

[1] = test system: primary human hepatocytes; test: Cytotoxicity / cell viability in primary human hepatocytes (CCK-8); assay type: cell-based; conditions: concentration up to 200 uM, 24 h
Method: Initial cell viability assays are performed on the YA7068 and new analogs on primary human hepatocytes (see letter from Prof. Hongbing Wang) using the commercially available CellTiter-Glo® 2.0 (Promega) as described by the manufacturer. […] These studies allow us to assess if the compounds are non-toxic for human liver cells.
Cytotoxicity studies of YA7068 to primary human hepatocytes were performed.
Human primary hepatocytes were maintained in DMEM medium with 10% fetal bovine serum (FBS) and 1% PS (penicillin/streptomycin). The cells were incubated in 37° C. incubator with 5% CO2. The number of viable cells was determined using the CCK-8 assay. Briefly, cells were seeded at a density of 5000 cells/well in 96-well plates, a nd were treated in triplicate with different concentrations of individual compounds (0, 0.1, 0.5, 1, 5, 10, 25, 50, 100, and 200 PM) for 24 h. Then, 10 μL of CCK-8 working solution was added to each well and incubated for appropriate times (0.5-4 h) before subjecting to a microplate reader for OD detection at 450 nm.

Row | SMILES | IC50 (ALDH2; read-out: IC50, inhibition of the enzymatic activity of ALDH2) | fold more potent than hit CB-01 (ALDH2 IC50) (ALDH2) | intracellular concentration, OATP1B1-transfected HEK293 cells vs wild-type HEK293 cells (OATP1B1; after incubating cells with the compound) | substrate for hepatocyte-specific OATP1B1 (OATP1B1; result in words) | cytotoxicity for primary human hepatocytes [1] | IC50 (ALDH2; read-out: IC50, ALDH2 enzymatic assay)
1 | CS(=O)(=O)Nc1ccc(-c2cc3ccc(OCc4cccc(C(=O)O)c4)cc3oc2=O)cc1 [YA7068, 3-(((3-(4-(Methylsulfonamido)phenyl)-2-oxo-2H-chromen-7-yl)oxy)methyl)benzoic acid] | 62 nM | > 170 fold | > 2.5 fold | functions as a substrate | did not exhibit any cytotoxicity | 
2 | CS(=O)(=O)Nc1ccc(-c2cn3cc(C(=O)O)sc3n2)cc1 [YA7241, 6-(4-(Methylsulfonamido)phenyl)imidazo[2,1-b]thiazole-2-carboxylic acid] |  | 5.8 fold |  |  |  | 1900 nM
